Results from patent publication US9228089B2, “Polyester polyamine and polyester polyquaternary ammonium corrosion inhibitors” (AKZO NOBEL CHEMICALS INTERNATIONAL B.V., priority 2010, dated 2016).

Experiments:
[1] = example 6 of PCT/EP2010/059325, cited from earlier work
[2] = bubble test, corrosion rate monitored by linear polarization resistance (LPR) in CO2-saturated synthetic Forties brine; details: 80 ppm active inhibitor, 54° C.
Method: The tests were carried out using the well-known “bubble test” method, see for instance the discussion in NACE International, Vol. 46, No. 5, pp 46-51 (May 2007), where corrosion rate is monitored by linear polarization resistance (LPR). First a baseline corrosion rate in the medium is established, and then corrosion rates with different amounts of inhibitor added are measured.
The detailed conditions for the tests were as follows: • Temperature 54° C. • CO2 CO2 Saturated at ambient pressure (˜0.9 bara partial pressure) • Liquids 100% Typical “Forties” (North Sea water) synthetic brine as shown below: • Chloride=42539 mg/l • Sulphate=0 mg/l • Barium=173 mg/l • Calcium=1979 mg/l • Strontium=351 mg/l • Magnesium=377 mg/l • Sodium=24973 mg/l • Potassium=341 mg/l • Bicarbonate=200 mg/l • Electrode Fabricated from AISI 1018 (UNS G10180), polished to 600 grit finish, degreased rinsed and dried • Inhibitor Concentration 4 hour precorrosion without inhibitor, then dose with 10 ppm of inhibitor and evaluate corrosion rate for at least 8 h, then add inhibitor so that the next level of total inhibitor dosage is reached according to Table 1. After each addition the corrosion rate is measured for at least 8 h. • Gas and partial pressure Ambient pressure test. […]

For “C12-C16 Cocoalkyl di-methyl benzyl quaternary amine”, the “% protection at 20 ppm” value ([1]; 20 ppm) is given as −28%, the “% protection at 50 ppm” value ([1]; 50 ppm) is given as 38% and the “% Protection at 80 ppm” value [2] is given as 89.6%.
